# Tests used:
# [1] = molecular target: T1, Cx43 hemichannels (Homo sapiens, UniProt P17302); assay: Carboxyfluorescein dye uptake assay in HK2 cells; format: cell-based; settings: TGFβ1 10 ng/mL alone, 48 h
# T1 construct: host or cells: HK2 human kidney proximal tubule epithelial cell line
# Protocol: (§1) In panel A, HK2 cells were cultured in low glucose (5 mM) with/without TGFβ1 (10 ng/ml)±danegaptide (50, 100 and 1000 nM) for 48 h and cell viability assessed. Results are presented as mean±SEM, n=3. […] Addition of danegaptide (50 or 100 nM) reduced dye uptake, returning fluorescence intensity to control levels. Intensity is expressed as percentage compared to low glucose control and is representative of 3 separate experiments. Data is presented as mean±SEM, n=3 with key significances indicated (**P<0.01, ***P<0.001); one-way ANOVA and Tukey's post-test).
# HK2 and HPTEC cells were seeded onto fluorodishes (22 mm diameter) and cultured in low glucose DMEM/F12 (5 mmol/1) for 48 h. Following an overnight serum-starvation, cells were incubated with TGFβ1 (10 ng/ml)±danegaptide (100 nM) for 48 h. For subsequent steps, a balanced salt solution (BSS, pH7.0) was used, comprising of NaCl (137 mM), KCl (5.4 mM), MgSO4 (0.8 mM), Na2HPO4 (0.3 mM), KH2PO4 (0.4 mM), NaHCO3 (4.2 mM), HEPES (10 mM) and glucose (5 mM). To induce dye uptake, cells were exposed to Ca^2+-free BSS (zero CaCl2+EGTA (1 mM)) plus carboxyfluorescein (200 μM) for 10 min, followed by a 10 min period in Ca^2+-containing BSS (1.3 mM) plus carboxyfluorescein (200 μM). Dishes were subsequently washed with Ca^2+-containing BSS (12 mls). Images were acquired with a Cool Snap HQ CCD camera (Roper Scientific) and Metamorph software (Universal Imaging Corp., Marlow, Bucks, UK). ImageJ was used to quantify dye uptake, where a region of interest (ROI) was drawn around each cell (approx. 10-15 cells/dish) and mean pixel intensity measured. A background fluorescence value was subtracted from each ROI.
# [2] = tested on: primary hPTECs; assay: qPCR of cell cycle and reno-protective marker mRNA; format: cell-based, human; settings: TGFβ1 10 ng/mL alone, 12 h
# Protocol: Primary hPTECs were cultured in low (5 mM) glucose±TGFβ1 (10 ng/mL)±danegaptide (100 nM) for 12 h. […] Danegaptide (100 nM) negated the increase in p16, p21, cyclinD1 (▴▴▴P<0.001; mean±SEM, n=3) and partly reversed the TGFβ1-evoked change in Klotho.
# To determine if danegaptide can negate hemichannel-mediated regulation of common cell cycle and reno-protective markers, hPTECs were incubated with TGFβ1 (10 ng/mL)±danegaptide (100 nM) for 12 h and expression of candidate gene mRNA assessed through qPCR analysis.
# RNA was extracted using an RNeasy mini kit (QIAGEN) and reverse transcribed (Invitrogen). Real-time PCR (SYBR GreenER, Invitrogen) was performed using a StepOne Plus instrument (Applied Biosystems Inc, Foster City, CA). cDNA expression was obtained by comparing to a standard curve of serially-diluted cDNA. The following primers were used: p16 (forward: […], reverse: […]), p21 (forward: […], reverse: […]), cyclinD1 (forward: […], reverse: […]), Klotho (forward: […], reverse: […]). Melt curve analysis confirmed primer specificity and checked for potential contamination.
# [3] = tested on: primary hPTECs; assay: Inflammation antibody array, cell lysates (Table 1); format: cell-based, human; settings: hPTEC lysate; TGF-β1 10 ng/mL alone, 48 h
# Text: An inflammation antibody array was used to assess regulation of 31 candidate inflammatory proteins in cell lysates from hPTEC cells treated with TGFβ1±danegaptide. Results are representative of 3 separate experiments and presented as mean±SEM, n=3 with key significances indicated (*P<0.05, **P<0.01, ***P<0.001; one-way ANOVA and Tukey's post-test).
# A proteome profiler array (Human Cytokine Array Kit from R&D Systems, Oxfordshire, UK) was used, to determine if danegaptide negates TGFβ1-induced changes in expression and secretion of key pro-inflammatory mediators. Primary hPTECs were cultured as described above and treated with TGFβ1 (10 ng/mL)±danegaptide (100 nM) for 48 h.
# [4] = molecular target: T1, Cx43 hemichannels; assay: Carboxyfluorescein dye uptake assay in primary hPTECs; format: cell-based; settings: TGFβ1 10 ng/mL alone, 48 h
# Protocol: as §1
# HK2 and HPTEC cells were seeded onto fluorodishes (22 mm diameter) and cultured in low glucose DMEM/F12 (5 mmol/1) for 48 h. Following an overnight serum-starvation, cells were incubated with TGFβ1 (10 ng/ml)±danegaptide (100 nM) for 48 h. For subsequent steps, a balanced salt solution (BSS, pH7.0) was used, comprising of NaCl (137 mM), KCl (5.4 mM), MgSO4 (0.8 mM), Na2HPO4 (0.3 mM), KH2PO4 (0.4 mM), NaHCO3 (4.2 mM), HEPES (10 mM) and glucose (5 mM). […] ImageJ was used to quantify dye uptake, where a region of interest (ROI) was drawn around each cell (approx. 10-15 cells/dish) and mean pixel intensity measured. A background fluorescence value was subtracted from each ROI.
# [5] = tested on: HK2 cells; assay: MTT assay (cell viability); format: cell-based, human; settings: TGFβ1 10 ng/mL alone, 48 h
# Protocol: HK2 cells were cultured in low glucose (5 mM) for 48 h, prior to being serum-starved overnight and subsequently treated with TGFβ1 (10 ng/mL)±danegaptide (50 nM-1 μM) for 48 h (FIG. 1A, n=3).
# The 3-(4,5-Dimethylthiazol-2-yl)-2,5-diphenyltetrazolium bromide (MTT) assay was performed as known in the art to assess the cytotoxic effects of danegaptide on cell proliferation. HK2 cells were seeded in 96-well plates and cultured in low glucose DMEM/F12 (5 mM) for 48 h, prior to overnight serum-starvation, then subsequently stimulated for 48 h with TGFβ1 (10 ng/ml)±danegaptide (50-1000 nM). Colourmetric measurement of formazan production corresponds to the number of viable cells.
# T1 sequence (P17302 whole entry): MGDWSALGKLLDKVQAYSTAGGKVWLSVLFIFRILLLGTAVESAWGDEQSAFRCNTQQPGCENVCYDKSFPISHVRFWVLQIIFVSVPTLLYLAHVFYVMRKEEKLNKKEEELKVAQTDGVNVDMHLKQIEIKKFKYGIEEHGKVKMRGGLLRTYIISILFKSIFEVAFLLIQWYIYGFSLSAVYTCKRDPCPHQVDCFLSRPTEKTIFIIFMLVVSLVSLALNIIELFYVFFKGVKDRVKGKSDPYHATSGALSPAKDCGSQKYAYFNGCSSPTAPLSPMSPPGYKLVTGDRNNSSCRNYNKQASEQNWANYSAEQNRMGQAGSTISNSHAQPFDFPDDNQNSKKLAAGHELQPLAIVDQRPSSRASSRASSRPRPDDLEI
substance,measurement,setting,value
TGFβ1: Recombinant hTGFβ1 (Sigma); pro-fibrotic cytokine used to stimulate the cells [reference compound],"carboxyfluorescein dye uptake, of control",[1],354.9±32.6%
same,"Klotho mRNA expression, of control",[2],43.3±3.8%
same,"cyclinD1 mRNA expression, of control",[2],253.2±7.7%
same,"p16 mRNA expression, of control",[2],358.8±21.1%
same,"p21 mRNA expression, of control",[2],221.8±12.9%
same,Angiogenin in lysate (% compared to control),[3],237 ± 36^ %
same,Cystatin C in lysate (% compared to control),[3],182 ± 17.5%
same,DPPIV in lysate (% compared to control),[3],315 ± 6.8%
same,ENA 78 in lysate (% compared to control),[3],207 ± 21.6%
same,Endoglin in lysate (% compared to control),[3],145 ± 24.9%
same,FGF7 in lysate (% compared to control),[3],139 ± 5.6%
same,Flt 3 Ligand in lysate (% compared to control),[3],212 ± 13.3%
same,G-CSF in lysate (% compared to control),[3],201 ± 24.6%
same,GM-CSF in lysate (% compared to control),[3],221 ± 11.1%
same,HGF in lysate (% compared to control),[3],153 ± 17.0%
same,ICAM 1 in lysate (% compared to control),[3],190 ± 13.6%
same,IFNg in lysate (% compared to control),[3],206 ± 15.4%
same,IGFBP2 in lysate (% compared to control),[3],519 ± 99.4%
same,IGFBP3 in lysate (% compared to control),[3],394 ± 94.5%
same,IL1A in lysate (% compared to control),[3],127 ± 26.4%
same,IL3 in lysate (% compared to control),[3],176 ± 3.4%
same,IL8 in lysate (% compared to control),[3],236 ± 9.4%
same,IL12 p70 in lysate (% compared to control),[3],177 ± 31.0%
same,IL13 in lysate (% compared to control),[3],269 ± 3.9%
same,Kallikrein 3 in lysate (% compared to control),[3],76 ± 12.0%
same,LIF in lysate (% compared to control),[3],328 ± 70.4%
same,MCP-1 in lysate (% compared to control),[3],134 ± 30.2%
same,MMP9 in lysate (% compared to control),[3],24 ± 3.1%
same,PDGF-AA/BB in lysate (% compared to control),[3],247 ± 53.4%
same,RAGE in lysate (% compared to control),[3],109 ± 23.8%
same,RANTES in lysate (% compared to control),[3],235 ± 13.5%
same,Serpin E1 in lysate (% compared to control),[3],186 ± 40.2%
same,TFF3 in lysate (% compared to control),[3],204 ± 25.8%
same,TNF-α in lysate (% compared to control),[3],192 ± 14.7%
same,Thrombospondin-1 in lysate (% compared to control),[3],128 ± 37.5%
same,VEGF in lysate (% compared to control),[3],203 ± 25.9%
same,"carboxyfluorescein dye uptake, of control",[4],310.8±38.6%
same,cell viability (MTT) as compared to control,[5],101.9±11.7%
